{"source": "patent US20080051646A1", "about": "“Probe for cellular oxygen” (priority 2006, published 2008)", "assay_type_in_all_cases": "cell-based", "key": {"PC12 cells": {"system": "PC12 cells", "assay": "Mitochondria-targeted probes in loaded cells on the Victor reader", "protocol": "The PtCP-BSA conjugate, synthesized as described in Example 1 was additionally labelled with a synthetic oligopeptide containing the following sequence: […]. The peptide comprises a mitochondria targeting sequence (according to http://psort.ims.u-tokyo.ac.jp), a terminal cysteine group was used for the conjugation. Labelling with the peptide was achieved by means of a heterobifunctional reagent—succinimide ester of maleimidopropionic acid. The PtCP-BSA conjugate was incubated with 10-molar excess of the reagent in 0.1 M phosphate buffer, pH 7.8 for 4 hours at room temperature, then separated on a PD-10 column in the same buffer. The peak of activated PtCP-BSA was collected, mixed with 10-molar excess of the peptide, incubated for further 6 hours. Finally, the PtCP-BSA-peptide conjugate was separated on a PD-10 column.\nAlternatively, the peptide was conjugated directly to PtCP. The monofunctional maleimide derivative of PtCP was used, which reacts spontaneously with —SH groups on the peptide (terminal cysteins) to form stable covalent linkage. […]\nProbes incorporating the PtCP-BSA-peptide and PtCP-peptide conjugates (successful labelling was confirmed by MALDI mass spectrometry) were formulated with Endoporter agent and used for cell loading as described in Examples 3 to 8. PC12 cells loaded with these probes produced high signals on the Victor reader."}, "A549 cells": {"system": "A549 cells", "assay": "Intracellular oxygen imaging of loaded cells treated with effector compounds", "protocol": "(§1) Loading of the cells with the PtCPK-BSA and PdCPK-BSA based probes (as described in Example 2) was carried out in the same way as described in Example 3 for the PtCP-BSA probes (i.e. 5 h in serum-free medium for the Escort or 24 h in serum-rich medium for Endoporter). A549 and HeLa cells loaded with PtCPK-BSA and PdCPK-BSA probes were then washed and analyzed by fluorescence microscopy. Imaging experiments of cells loaded with the probes were carried out on an Olympus IX51 inverted fluorescence microscope equipped with 75 W Xenon Arc Lamp (Cairn), an Optoscan Monochromator (Cairn) and an Orca-ER CCD camera (Hamamatsu). Live cell imaging was carried out using an Olympus UplanFl 1.3 NA 100× oil-immersion objective. The images were analysed using Kinetic Imaging AQM Advanced software (Version 6). The PtCPK and PdCPK probes were imaged under excitation at wavelengths of 395 nm and 400 nm respectively collecting the phosphorescence emission using a 600 nm cut-off filter.\n(§2) Adherent A549, HeLa and SH-SY5Y cells were grown under normal conditions. Cells were loaded with probes based on PtCPK-BSA and PdCPK-BSA and Escort III (described in Example 2), and treated with various effector compounds with known mechanisms of action on cell metabolism and cellular response to the effector compounds was observed under a fluorescent microscope.\nThe effect of Ca-channel agonist ryanodine (20 nM) on SH-SY5Y cells, with up-regulation of cell metabolism by inducing a release of Ca2+ from intracellular stores, is shown in FIG. 4. […] An approximately 40% drop in PtCPK phosphorescence was observed as the base rate of respiration was inhibited resulting in higher levels of intracellular oxygen emanating from O2 influx from the extracellular medium.\nThe specificity of the CMC response was confirmed by incubating A549 cells with an equimolar concentration of the ryanodine channel blocker procaine followed by CMC treatment. In this case, phosphorescence intensity increased by less than 10% after the introduction of CMC."}, "Jurkat T-cells": {"system": "Jurkat T-cells", "assay": "Phosphorescence lifetime of PtCP-BSA probe in Jurkat cells on a fluorescent lifetime spectrometer", "conditions": "for change in intracellular probe phosphorescence lifetime after effector: Jurkat cells loaded with PtCP-BSA-Escort III probe, 1 μM, three minute intervals", "experimental": "Jurkat T-cells were grown in RPMI medium supplemented with 10% FBS, 2 mM L-glutamine, 100 U/ml penicillin and 100 μg/ml streptomycin.\nFor loading, the PtCP-BSA based probe comprising PtCP-BSA conjugate formulated with Escort III (described in Example 1) was used. Probe solution was pre-warmed by incubating at 37° C for 15 min followed by addition of 100 μl of the probe solution to the cell culture dish containing 800 μl of serum free medium. The cells and probe solution were incubated for 5 hours in a 5% CO2 incubator at 37° C., cells were then washed with 1 ml of serum free medium three times.\nLoading of the cells loaded with the PtCP-based probe(s) was initially assessed by measurement on a fluorescent lifetime spectrometer Cary Eclipse (Varian), both in the intracellular environment (i.e. after loading and washing of the cells) and in the extracellular medium (at the start of loading, no washing). […] The inhibitor blocks oxygen consumption and adjusts intracellular oxygen levels to air-saturated levels.\nJurkat T-cell lymphoma cells were grown under normal conditions and loaded with the PtCP-BSA-Escort III based probe (as described in Example 1) using the method described in Example 3. Following washing the basal level of intracellular oxygen was assessed by measuring the phosphorescence lifetime of the PtCP probe using a Cary Eclipse spectrofluorometer and analyzing phosphorescence decays using Origin™ software (single-exponential fits). Phosphorescence lifetimes of the intracellular probe in loaded cells were measured at three minute intervals following the addition of 1 μM valinomycin."}, "HeLa cells": {"system": "HeLa cells", "assay": "Intracellular oxygen imaging of loaded cells treated with valinomycin", "conditions": "HeLa cells loaded with PtCPK-BSA or PdCPK-BSA; 1 μM", "protocol": "as §1\nas §2, with “microscope. […]” for “microscope.”"}, "Jurkat T cells": {"system": "Jurkat T cells", "assay": "Lifetime of cell-surface-bound WGA-PtCP probe on Victor2 time resolved reader", "conditions": "Jurkat cells loaded with WGA-PtCP probe; 1 μM; basal 25 μs", "protocol": "Wheat germ agglutinin (WGA) at 1 mg/ml concentration in 0.1 M Na carbonate, pH 8.6 was labelled with the PtCP-NCS dye using a 20-molar excess of dye. After two hours of incubation at room temperature, the resulting conjugate was separated from the free dye as described in example 1 above. Jurkat T cells and human B cells were incubated with WGA-PtCP probe at 1 μM concentration for 30 min at 37° C. in RPMI medium, to achieve binding of the probe to glycoproteins on cell surface. After washing of loaded cells with medium, local oxygen concentration (at cell surface and within the cell) was assessed. and responses to effectors of respiration such as 1 μM FCCP were measured. Lifetimes of the cells loaded with WGA-PtCP probe was measured on a time resolved fluorescent reader Victor^2, using excitation at 340 nm excitation and 642 nm emission filters, and pairwise intensity readings at delay times 30 and 70 μs (at gate time 100 μs). Basal lifetime of resting Jurkat cells was recorded as 25 μs, moving to 32 μs upon the addition of FCCP (uncoupler of respiration). Under the same conditions, using the PtCP-BSA conjugate which had no ability to bind to the cells and remained in extracellular medium, intracellular oxygen gradients and responses to effectors were undetectable."}}, "note": "Where no end group is shown, it is not given here. PtCP = not defined here", "data": [{"molecule": "PtCP-peptide: PtCP-maleimide conjugated directly to peptide VLTPLLLRGLTGSARRLPVPRAKAC (VLTPLLLRGLTGSARRLPVPRAKAC(PtCP); reading uncertain)", "values": [{"measurement": "signals of loaded cells on the Victor reader", "setting": "PC12 cells; formulated with Endoporter", "result": "high signals"}, {"measurement": "phosphorescence lifetimes of resting loaded cells compared with PtCP-BSA probe", "setting": "PC12 cells; resting", "result": "higher"}]}, {"molecule": "ryanodine", "values": [{"measurement": "response of loaded cells, lower concentrations", "setting": "A549 cells; A549 cells loaded with PtCPK, 2 nM and 20 nM", "result": "increased phosphorescence"}, {"measurement": "response of loaded cells, higher concentrations", "setting": "A549 cells; A549 cells loaded with PtCPK, 200 nM and 2 μM", "result": "little oxygen uptake"}]}, {"molecule": "Cc1cc(O)ccc1Cl", "note": "[CMC, 4-chloro-meta-cresol]", "values": [{"measurement": "increase of phosphorescence intensity", "setting": "A549 cells; A549 cells pre-incubated with equimolar procaine, then 500 μM CMC", "result": "less than 10%"}, {"measurement": "effect on the phosphorescence", "setting": "A549 cells; respiring A549 cells loaded with PtCPK-BSA, 500 μM", "result": "pronounced effect"}]}, {"molecule": "antimycin A", "values": [{"measurement": "probe lifetime after addition of inhibitor", "setting": "Jurkat T-cells; Jurkat cells loaded with PtCP-BSA probe, basal 31 μs, lifetime decreases and levels off", "result": "~25", "unit": "μs"}, {"measurement": "change in intracellular probe phosphorescence lifetime after effector", "setting": "Jurkat T-cells", "result": "slight drop"}, {"measurement": "drop in PtCPK phosphorescence", "setting": "A549 cells; A549 cells loaded with PtCPK-BSA/Escort III, 2 μM", "result": "approximately 40%"}]}, {"molecule": "CC(C)[C@@H]1NC(=O)[C@H](C)OC(=O)[C@@H](C(C)C)NC(=O)[C@@H](C(C)C)OC(=O)[C@H](C(C)C)NC(=O)[C@H](C)OC(=O)[C@@H](C(C)C)NC(=O)[C@@H](C(C)C)OC(=O)[C@H](C(C)C)NC(=O)[C@H](C)OC(=O)[C@@H](C(C)C)NC(=O)[C@@H](C(C)C)OC1=O", "note": "[valinomycin]", "values": [{"measurement": "change in intracellular probe phosphorescence lifetime after effector", "setting": "Jurkat T-cells", "result": "increase in probe lifetime was significantly faster than in a control sample"}, {"measurement": "phosphorescence response to effector", "setting": "HeLa cells", "result": "rapid and cell specific"}, {"measurement": "phosphorescence response to effector", "setting": "A549 cells; A549 cells loaded with PtCPK-BSA or PdCPK-BSA, 1 μM", "result": "rapid and cell specific"}]}, {"molecule": "N#CC(C#N)=NNc1ccc(OC(F)(F)F)cc1", "note": "[FCCP]", "values": [{"measurement": "lifetime upon addition of uncoupler", "setting": "Jurkat T cells", "result": 32, "unit": "μs"}]}]}
